Legend:
Assay type in all cases: functional
Escherichia coli [1] = experiment: Photoinactivation of Escherichia coli EC7 assessed as log reduction of cell survival at 5 uM after 30 mins of irradiation
Escherichia coli [2] = experiment: Photoinactivation of Escherichia coli EC7 at 1 uM after 5 mins of irradiation
Escherichia coli [3] = experiment: Photoinactivation of Escherichia coli EC7 at 1 uM after 20 mins of irradiation

Compound	Survival (Escherichia coli [1])	Activity (Escherichia coli [2]) [%]	Activity (Escherichia coli [3]) [%]
Cc1ccc(-c2c3nc(c(-c4ccc([N+](C)(C)C)cc4)c4ccc([nH]4)c(-c4ccc([N+](C)(C)C)cc4)c4nc(c(-c5ccc(C)cc5)c5ccc2[nH]5)C=C4)C=C3)cc1.[I-].[I-]	3.2	70	–
C[N+](C)(C)CCCOc1ccc(-c2c3nc(c(-c4ccc(C(F)(F)F)cc4)c4ccc([nH]4)c(-c4ccc(OCCC[N+](C)(C)C)cc4)c4nc(c(-c5ccc(C(F)(F)F)cc5)c5ccc2[nH]5)C=C4)C=C3)cc1.[I-].[I-]	–	–	87
